Here are results for two compounds from patent US11191780B2, “Extracellular matrix compositions for the treatment of cancer or immunological diseases” (ADAPTIVE BIOLOGIX, INC., priority 2015, dated 2021).

One assay relates to C6 cells. As to the kind of experiment: C6 tumor growth in nude mice, subcutaneous co-injection. The assay is classed as in vivo, mouse. Particulars: vs no treatment control (FIG. 12). As to the method: (§1) Tumor growth of B16 cells, C6 cells, or MDA435 cells in the presence or absence of ECM, and with or without cisplatin, were examined in nude mice. Cells, ECM and Cisplatin were injected simultaneously subcutaneously in the lower haunch of a nude mouse. Tumor growth was followed over time using photography, measurements of length and width, then finally by weight. FIGS. 8 and 9 show the growth of tumors from C6 cells in nude mice in the presence (FIG. 9) and absence (FIG. 8) of ECM on day 14 post-injection. FIGS. 10 and 11 show the growth of tumors from C6 cells in nude mice in the presence of ECM with cisplatin (FIG. 10) and cisplatin without ECM (FIG. 11) of ECM on day 14 post-injection.

For a further assay, the system named is MDA435 cells. Put plainly: MDA435 tumor growth in nude mice, subcutaneous co-injection. The format is in vivo, mouse. As to the method: as §1
In a further assay the test system is lung cancer. The settings on record: cited from earlier work.

Like-named read-outs stand apart in the source and are kept apart here.

Take `N.N.[Cl][Pt][Cl]` [cisplatin]: in the assay with C6 cells, the “tumor growth over 18 days” value is recorded as “no growth”. Also, in the assay with MDA435 cells (vs no treatment control (FIG. 14)), the “tumor growth over 25 days” value is recorded as “reduction in tumor mass to zero”. The tumor growth entry in the assay on MDA435 cells (vs no treatment control (FIGS. 13A-D)) is “reduced or no tumor growth”.

On to “MEDI4736: an engineered fully-human anti-PD-L1 antibody”, for which the ORR entry was “up to 39%” with lung cancer (PD-L1+ patients), 5% in the assay on lung cancer (PD-L1 negative patients) and 13% in the assay on lung cancer (all the patients with lung cancer).
